Results reported in US20080254487A1, “Connective Tissue Growth Factor Signaling” (FIBROGEN, INC., priority 2004, published 2008).
Values belong to the molecule of their own block, whether it stands above or below them.

Assays:
CTGF [1] = molecular target: T1, CTGF (Homo sapiens, UniProt P29279); assay: Co-immunoprecipitation assay, interaction with CTGF; type: binding; settings: FIG. 8A, FIG. 9
T1 sequence (P29279 27-349): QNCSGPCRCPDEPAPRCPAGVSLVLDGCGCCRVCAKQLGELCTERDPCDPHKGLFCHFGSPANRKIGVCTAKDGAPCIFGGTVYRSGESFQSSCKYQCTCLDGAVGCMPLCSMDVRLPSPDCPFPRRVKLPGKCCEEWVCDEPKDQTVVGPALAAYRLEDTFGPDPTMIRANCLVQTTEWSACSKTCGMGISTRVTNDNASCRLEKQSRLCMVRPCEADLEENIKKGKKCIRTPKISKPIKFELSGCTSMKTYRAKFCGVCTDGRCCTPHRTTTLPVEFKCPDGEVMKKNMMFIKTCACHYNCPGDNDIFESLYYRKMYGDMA
Protocol: (§1) Co-immunoprecipitation is a purification procedure used to determine if two different molecules, e.g., proteins, directly interact. Basically, an antibody specific to a protein of interest is added to a cell lysis under conditions suitable for antibody binding to the protein. The antibody-protein complex is then collected, e.g., using protein-G sepharose, which binds most antibodies. Any molecules that are bound to the precipitated protein will also be collected. Identification of proteins can be determined by, e.g., western blot or by direct sequencing of the purified protein(s). Several commercial kits, e.g., the PROFOUND co-immunoprecipitation kit from Pierce Biotechnology, Inc. (Rockford Ill.) are also available.
(§2) In the present examples, co-immunoprecipitations were performed as follows. The surface of intact cells was iodinated with ^125I prior to lysing cells and fractionating on a CTGF affinity column. Alternatively, CTGF and labeled cells were incubated for a period sufficient for CTGF binding to cells, and then cells were lysed and immunoprecipitations were performed using anti-CTGF specific antibodies. Antibody complexes were collected from the lysate using protein-G sepharose, and pelleted by centrifugation. Proteins eluted from affinity columns or collected by immunoprecipitation were analyzed by fractionation on SDS-PAGE and visualized by autoradiography. […]

CTGF and betaglycan = molecular target: T2, CTGF and betaglycan (Homo sapiens, UniProt P29279); assay: Co-immunoprecipitation assay, binding between CTGF and betaglycan; settings: soluble betaglycan, bFGF and CTGF mixed; dose-sensitive; FIG. 9
T2 sequence (P29279 27-349): T1 sequence (P29279 27-349)
Protocol: as §1, §2

[2] = molecular target: T3, recombinant human CTGF (rhCTGF) (Homo sapiens, UniProt P29279); assay: Cell adhesion assay (CTGF-mediated cell adhesion); type: cell-based; settings: HFF cells; increasing concentrations added to the adhesion reaction; FIGS. 3C, 6A, 7A
T3 construct: in the presence of no CTGF, full-length CTGF, the N-terminal half of CTGF (NH2 fragment); made in house; host or cells: Hi5 insect cells infected with baculovirus (pFASTBAC1; virus generated in Sf9)
T3 sequence (P29279 27-349): T1 sequence (P29279 27-349)
Protocol: Methods for measuring cell adhesion mediated by CTGF are generally known to those skilled in the art. (See, e.g., Babic et al. (1999) Mol Cell Biol 19:2958-296; Ball et al. (2003) J Endocrinol 176:R1-7.) In some experiments, wells of a MAXISORP plate (Nunc Nalgene) were treated with 10 μg/ml recombinant human CTGF (rhCTGF) to directly adsorb CTGF to the well. Alternatively, wells were coated with a human monoclonal antibody specific for human CTGF, and then were blocked with bovine serum albumin to prevent non-specific binding. 2 μg/1 ml rhCTGF or fragments thereof, or a vehicle control was added to each well. Plates were then washed 3 times with PBS, cells were added at a seed density of approximately 8×10^3 cells/well, and plates were incubated for 45 minutes at 37° C. Wells were then washed twice, and the number of cells retained in each well was measured using a CYQUANT cell proliferation assay kit (Molecular Probes, Inc., Eugene Oreg.). Alternatively, attached cells were lysed in 2% Triton and lactate dehydrogenase (LDH) activity was measured using a cytotoxicity detection (LDH) kit (Roche Diagnostics Corp., Chicago, Ill.). LDH levels were compared against a standard curve generated using known numbers of cells, and results of experiment were expressed as numbers of attached cells per well.
CTGF has been described as a heparin-binding growth factor. As cells may carry a variety of proteoglycan moieties on their surface, e.g., heparan sulfate, chondroitin sulfate, etc. (see FIG. 3A), the following experiment was conducted to determine the specificity of CTGF for such moieties. The cell adhesion and cell binding assays were conducted as described in Examples 3.1 and 3.2, respectively, except prior to seeding cells were treated for 1 hour at 37° C. with either vehicle, 4 units/ml heparinase I, or 2 units/ml chondroitinase ABC.
To further examine the requirement for heparan sulfate proteoglycans in CTGF-mediated cell adhesion, adhesion was measured in the presence of increasing amounts of heparin. […]

CTGF [3] = molecular target: T1, CTGF; assay: CTGF binding assay (binding of CTGF to cells, FACS); type: cell-based; settings: increasing concentrations of heparin or modified heparin, FIG. 4
Protocol: Methods for measuring binding of CTGF to cells are generally known to those skilled in the art. (See, e.g., Nishida (1998) Biochem Biophys Res Commun 247:905-909; Segarini et al. (2001) J Biol Chem 276:40659-40667.) In one method used herein, cells were suspended in media containing CTGF under conditions suitable for binding of CTGF to cellular targets, e.g., incubation at 4° C. Cells may optionally be treated prior to or concurrently with CTGF exposure; for example, cells may be treated with enzymes that alter cell surface moieties, molecules that compete competitively or non-competitively with CTGF for binding to cells, etc. Following incubation, cells were washed and then incubated with fluorescently-labeled anti-CTGF antibody. The level of CTGF binding was then measured using a FACS apparatus.
To determine the specificity of sulfation and charge distribution for CTGF-mediated cell adhesion and cell binding, experiments as described in Examples 3.1, 3.2, and 3.3, were performed with the following modification. Combination of HFF cells with CTGF was accompanied by addition of increasing concentrations of heparin that was modified to contain differing amounts of sulfation and/or acetylation.

CTGF [4] = molecular target: T1, CTGF; assay: CTGF displacement assay (endogenous CTGF displaced from cells, sandwich ELISA); type: cell-based; design: measured displacement of CTGF endogenously produced by cells; endogenous in cells; host or cells: HLF and MG63 cells (constitutive or TGF-β2-induced expression); settings: HLF or MG63 cells; titrated amounts of sulfated polysaccharides; FIGS. 6B, 7B
Protocol: Alternatively, cell binding was measured using a CTGF displacement assay. The displacement assay used in the present examples measured displacement of CTGF endogenously produced by cells. HLF and MG63 cells were separately used in the displacement assay as follows. In all experiments, cells were plated in 96-well tissue culture plates at a seed density of 2.5×10^4 cells/well. Cells were incubated for approximately 24 hours at 37° C., and then medium was replaced with a serum-free medium containing titrated amounts of sulfated polysaccharides (glycosaminoglycans, GAGs). In some experiments, constitutive CTGF expression accounted for the displaced CTGF, whereas in other experiments additional levels of CTGF were induced by addition of TGF-β2 in culture media 30 minutes prior to change of media and addition of GAGs. MG63 cells were incubated for either 3 or 6 hrs, and HLF cells were incubated for 20 hrs, at 37° C., and then conditioned media was assayed for N-fragment and full-length CTGF using a sandwich ELISA assay. (See International Publication No. WO 03/024308.)
To determine size requirements for modulation of CTGF-mediated cell adhesion and cell binding, heparin moieties containing differing saccharide subunit number were examined. Polysaccharide lengths tested ranged from 10 to approximately 50 saccharides, and experiments were carried out as described in examples 3.1 and 3.3. […]

- CTGF-mediated (CTGF-dependent) cell adhesion, effect of added polysaccharide [2]: inhibited
- binding of CTGF to HFF, inhibition (CTGF [3]): substantially inhibit
Molecule: heparin

- interaction with CTGF (co-immunoprecipitation with anti-CTGF antibodies) (CTGF [1]): dose-sensitive interaction
B1: sBetaglycan: soluble betaglycan (TGF-β type III receptor), a heparan sulfate proteoglycan (protein, UniProt Q03167 21-787, looked up)
extracellular domain: GPEPGALCELSPVSASHPVQALMESFTVLSGCASRGTTGLPQEVHVLNLRTAGQGPGQLQREVTLHLNPISSVHIHHKSVVFLLNSPHPLVWHLKTERLATGVSRLFLVSEGSVVQFSSANFSLTAETEERNFPHGNEHLLNWARKEYGAVTSFTELKIARNIYIKVGEDQVFPPKCNIGKNFLSLNYLAEYLQPKAAEGCVMSSQPQNEEVHIIELITPNSNPYSAFQVDITIDIRPSQEDLEVVKNLILILKCKKSVNWVIKSFDVKGSLKIIAPNSIGFGKESERSMTMTKSIRDDIPSTQGNLVKWALDNGYSPITSYTMAPVANRFHLRLENNAEEMGDEEVHTIPPELRILLDPGALPALQNPPIRGGEGQNGGLPFPFPDISRRVWNEEGEDGLPRPKDPVIPSIQLFPGLREPEEVQGSVDIALSVKCDNEKMIVAVEKDSFQASGYSGMDVTLLDPTCKAKMNGTHFVLESPLNGCGTRPRWSALDGVVYYNSIVIQVPALGDSSGWPDGYEDLESGDNGFPGDMDEGDASLFTRPEIVVFNCSLQQVRNPSSFQEQPHGNITFNMELYNTDLFLVPSQGVFSVPENGHVYVEVSVTKAEQELGFAIQTCFISPYSNPDRMSHYTIIENICPKDESVKFYSPKRVHFPIPQADMDKKRFSFVFKPVFNTSLLFLQCELTLCTKMEKHPQKLPKCVPPDEACTSLDASIIWAMMQNKKTFTKPLAVIHHEAESKEKGPSMKEPNPISPPIFHGLDTLTV
modifications: extracellular domain
notes: soluble betaglycan (TGF-β type III receptor), a heparan sulfate proteoglycan

The remaining lines, values behind:

Molecule: bFGF: basic fibroblast growth factor
- interaction with CTGF (co-immunoprecipitation with anti-CTGF antibodies) (CTGF [1]): clear interaction
- binding between CTGF and betaglycan in the presence of the factor (CTGF and betaglycan): adversely influenced

Molecule: chondroitin sulfate [naturally sulfated chondroitin]
- CTGF-mediated (CTGF-dependent) cell adhesion, effect of added polysaccharide [2]: no modulation
- binding of CTGF to cells (displacement assay) (CTGF [4]): no modulation

Molecule: dermatan sulfate [naturally sulfated dermatan]
- CTGF-mediated (CTGF-dependent) cell adhesion, effect of added polysaccharide [2]: no modulation
- binding of CTGF to cells (displacement assay) (CTGF [4]): no modulation
